Laboratory results: ChEMBL document CHEMBL1124670, “1-(3-cyano-2,3-dideoxy-beta-D-erythro-pentofuranosyl)thymine (cyanothymidine): synthesis and antiviral evaluation against human immunodeficiency virus” (1989)
In brackets after ≈: the same amount, converted by molar mass.

How the values were obtained:
Assay type in all cases: functional, Homo sapiens
ATH-8 cell line = experiment: Protection of ATH8 cells against the cytopathic effect of HIV isolate […]
C8166 [1] = experiment: Protection of C8166 cells against the cytopathic effect of HIV isolate CBL-1
C8166 [2] = experiment: Protection of C8166 cells against the cytopathic effect of HIV isolate RF
C8166 [3] = experiment: Pprotection of C8166 cells against the cytopathic effect of HIV isolate RF

| Compound | ED90 (ATH-8 cell line) [µg/mL] | ED90 (C8166 [1]) [µg/mL] | ED90 (C8166 [2]) [µg/mL] | ED90 (C8166 [3]) [µg/mL] |
| --- | --- | --- | --- | --- |
| Cc1cn(C2C[C@@H](C#N)[C@@H](CO)O2)c(=O)[nH]c1=O (stereo partly drawn) | >2.5 | >100 | >100 | – |
| Cc1cn([C@H]2C=C[C@@H](CO)O2)c(=O)[nH]c1=O [STAVUDINE] | <0.25 | – | – | 1 (≈ 4.46 µM) |
| Cc1cn([C@H]2C[C@H](N=[N+]=[N-])[C@@H](CO)O2)c(=O)[nH]c1=O [ZIDOVUDINE] | <0.25 | 0.1 (≈ 0.374 µM) | – | 1 (≈ 3.74 µM) |
